Measurements published in patent publication US5670501A, “N-substituted 9-alkyladenines” (Discovery Therapeutics, Inc., priority 1994, dated 1997).

Experiments:
[1] = biological target: T1, adenosine A1 receptor (Bos taurus, UniProt P28190); experiment: Receptor affinity (radioligand binding), A1, [3H]CHA; design: species or system bovine; conditions: for Selectivity Ratio (A2 Ki /A1 Ki): radioligand binding; for Ki: [3H]CHA, room temperature, 2 hours, tissues listed: bovine caudate, guinea pig cortex, guinea pig striatum (only Example 13 marked guinea pig)
T1 construct: were homogenized with a Brinkman polytron and the membranes were collected by centrifugation; from tissue; host or cells: bovine caudate membranes
T1 sequence (P28190 1-326): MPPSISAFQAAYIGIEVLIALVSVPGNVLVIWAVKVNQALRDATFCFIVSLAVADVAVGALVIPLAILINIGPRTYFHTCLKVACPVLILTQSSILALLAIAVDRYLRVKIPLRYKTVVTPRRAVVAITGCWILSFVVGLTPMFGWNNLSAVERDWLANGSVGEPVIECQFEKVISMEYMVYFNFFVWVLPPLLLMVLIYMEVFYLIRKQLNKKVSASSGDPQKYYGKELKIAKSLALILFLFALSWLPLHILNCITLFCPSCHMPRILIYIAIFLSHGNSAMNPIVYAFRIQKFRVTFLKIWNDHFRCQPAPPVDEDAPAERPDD
Experimental: (§1) 1. Receptor Affinity Experiments (Radioligand Binding)
(§2) Tissues (bovine caudate, guinea pig cortex, guinea pig striatum) were homogenized with a Brinkman polytron and the membranes were collected by centrifugation at 40,000×g at 4° C. for 10 min. The membranes were washed by resuspension and centrifugation, resuspended, and incubated in the presence of 1 U/ml adenosine deaminase for 15-30 min. at 37° C. The membranes were diluted, centrifuged once, and resuspended to a final concentration of 0.5-2 mg protein/ml. Adenosine deaminase (0.1 U/ml) was included in the final resuspension. Assays were initiated by addition of membranes. The compounds of the present invention were subjected to the following experimental conditions: A1 determinations/incubated with [^3 H]CHA at room temperature for 2 hours, A2 determinations/incubated with [^3 H]NECA at room temperature for 1 hour. Assays were terminated by filtration, and the filters were counted in scintillation counters.

[2] = biological target: adenosine A2 receptor; experiment: Receptor affinity (radioligand binding), A2, [3H]NECA; design: species or system bovine / guinea pig; conditions: room temperature, 1 hour
Experimental: as §1, §2

[3] = biological target: T2, adenosine A1 receptor (Cavia porcellus, UniProt P47745); experiment: A1 in vitro functional test: negative inotropic response, left atria, antagonism of NECA; format: cell-based, guinea pig; conditions: for Selectivity Ratio (A2 KB /A1 KB): functional; for Kb: guinea pig left atria, electrically evoked twitch, NECA agonist, 31° C, Schild plot, read-out: A1 KB (antagonist dissociation constant)
T2 construct: from tissue; host or cells: isolated guinea pig left atria
T2 sequence (P47745 1-326): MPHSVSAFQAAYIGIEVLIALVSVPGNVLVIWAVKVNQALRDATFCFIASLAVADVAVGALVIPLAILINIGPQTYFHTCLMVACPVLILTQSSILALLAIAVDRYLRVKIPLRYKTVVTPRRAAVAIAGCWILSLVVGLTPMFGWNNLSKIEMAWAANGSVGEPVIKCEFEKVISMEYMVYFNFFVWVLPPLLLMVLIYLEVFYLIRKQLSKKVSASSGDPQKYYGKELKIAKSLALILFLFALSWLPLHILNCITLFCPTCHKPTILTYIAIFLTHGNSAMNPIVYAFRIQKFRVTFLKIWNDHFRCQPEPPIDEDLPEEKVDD
Experimental: 2. Adenosine--A1 /A2 In Vitro Functional Tests
(A1 Assay: Negative inotropic response)-Guinea pig left atria were placed in organ baths filled with Krebs Henseleit solution gassed with 95% O2 and 5% CO2 and maintained at a temperature of 31° C. An initial resting tension of 1 gm. was placed on each tissue, which was allowed to equilibrate. Atria were stimulated electrically to produce twitch responses. A dose-response curve for the inhibition of the electrically-evoked twitch response was obtained by cumulative addition of the adenosine agonist […]. After the washout of the tissue, a fixed concentration of test compound was added and the tissue allowed to equilibrate for 1 hr. before cumulative additions of the adenosine agonist 5'-N-ethylcarboxamidoadenosine (NECA) to generate a new dose response curve. This procedure was repeated with different fixed concentrations of test compounds to generate a family of dose response curves. Schild plots were constructed from the resultant concentration-effect curves, and KB (antagonist dissociation constant) values were obtained. The results (see Table VII) are expressed as KB values (concentration of test compound such that one-half of the tissue adenosine receptor population is occupied by the test compound).

[4] = biological target: T2, adenosine A1 receptor; experiment: Receptor affinity (radioligand binding), A1, [3H]CHA, guinea pig tissue; conditions: room temperature, 2 hours, value obtained using guinea pig tissue
Experimental: as §1, §2
*This value was obtained using guinea pig tissue.

| SMILES | Selectivity Ratio (A2 Ki /A1 Ki) [1] | Ki [2] | Selectivity Ratio (A2 KB /A1 KB) [3] | Kb [3] | Ki [4] | Ki [1] |
| --- | --- | --- | --- | --- | --- | --- |
| Cn1c(C#N)nc2c(N[C@H]3C[C@H]4CC[C@@H]3C4)ncnc21 (relative stereo) [Example 1, (±)-N^6-(endo-2'-norbornyl)-8-cyano-9-methyladenine] | 362 | 1.41 µM | 46 | 81 nM |  | 3.89 nM |
| COc1ccc2c(c1)[C@@H]1C[C@H]2[C@H](Nc2ncnc3c2ncn3C)C1 (relative stereo) [Example 41] | > 48 | > 10 µM |  | 64600 nM |  | 209 nM |
| Cn1cnc2c(N[C@@H]3C[C@H]4C[C@@H]3c3ccc(O)cc34)ncnc21 (relative stereo) [Example 36, (±)-N^6-[endo-2'-(5',6'-(6"-hydroxy)benzo)norbornyl]-9-methyladenine] | 316 | 0.631 µM |  | 275 nM |  | 2 nM |
| CSc1nc2c(NC3CCCC3)ncnc2n1C [Example 12, N^6-cyclopentyl-8-methylthio-9-methyladenine] | 145 | 0.363 µM |  | 71 nM |  | 2.5 nM |
| Cn1c(Br)nc2c(N[C@H]3C[C@@H]4C[C@H]3C[C@@H]4O)ncnc21 (relative stereo) [Example 17, (±)-N^6-[endo-2'-(endo-5'-hydroxy)norbornyl]-8-bromo-9-methyladenine] | 59 | 0.0692 µM | 65 | 30 nM |  | 1.17 nM |
| Cn1cnc2c(N[C@H]3C[C@H]4C[C@@H]3[C@@H](O)C4)ncnc21 (relative stereo) [Example 32] | > 195 | > 10 µM |  | 6030 nM |  | 51.3 nM |
| Cn1cnc2c(N[C@H]3C[C@@H]4C[C@H]3[C@@H](O)C4)ncnc21 (relative stereo) [Example 23] | 371 | 31.6 µM |  | 3800 nM |  | 85.1 nM |
| COc1ccc2c(c1)[C@H]1C[C@H](Nc3ncnc4c3ncn4C)[C@@H]2C1 (relative stereo) [Example 40] | 631 | 5.62 µM |  | 1120 nM |  | 8.91 nM |
| Cn1c(Br)nc2c(N[C@H]3C[C@H]4CC(=O)[C@@H]3C4)ncnc21 (relative stereo) [Example 19] | 100 | 0.347 µM |  | 115 nM |  | 3.47 nM |
| Cn1cnc2c(N[C@H]3C[C@@H]4C[C@H]3C[C@@H]4O)ncnc21 (relative stereo) [Example 21, (±)-N^6-[endo-2'-(endo-5'-hydroxy)-norbornyl]-9-methyladenine] | 165 | 3.16 µM | 324 | 309 nM |  | 19.1 nM |
| Cn1cnc2c(N[C@H]3C[C@H]4C[C@@H]3C[C@@H]4O)ncnc21 (relative stereo) [Example 30, (±)-N^6-[exo-2',(exo-5'-hydroxy)-norbornyl]-9-methyladenine] | 1,176 | 42.7 µM |  | 1310 nM |  | 363 nM |

The remaining compounds from weak to strong by Ki [2], led by results:

| Selectivity Ratio (A2 Ki /A1 Ki) [1] | Ki [2] | Selectivity Ratio (A2 KB /A1 KB) [3] | Kb [3] | Ki [4] | Ki [1] | SMILES |
| --- | --- | --- | --- | --- | --- | --- |
| 323 | 31.6 µM |  | 2950 nM |  | 97.7 nM | Cn1cnc2c(N[C@H]3C[C@@H]4C[C@H]3C[C@H]4O)ncnc21 (relative stereo) [Example 22] |
| 137 | 14.4 µM |  | 4070 nM |  | 105 nM | Cn1cnc2c(N[C@H]3C[C@H]4C[C@@H]3C[C@H]4O)ncnc21 (relative stereo) [Example 31] |
| 241 | 11 µM | > 152 | 2080 nM |  | 45.7 nM | Cn1cnc2c(NC3CCCCC3)ncnc21 [Example 47, N^6-cyclohexyl-9-methyladenine, reference compound] |
| 617 | 6.17 µM | 36 | 550 nM |  | 10 nM | Cn1cnc2c(N[C@@H]3C[C@@H]4CC[C@H]3C4)ncnc21 (relative stereo) [Example 49, N^6-(endo-2-norbornyl)-9-methyladenine, reference compound] |
| 331 | 5.89 µM |  | 1580 nM |  | 17.8 nM | Cn1cnc2c(N[C@H]3C[C@H]4C[C@@H]3c3ccccc34)ncnc21 (relative stereo) [Example 38] |
| 501 | 5.01 µM | > 395 | 759 nM |  | 10 nM | Cn1cnc2c(NC3CCCC3)ncnc21 [Example 48, N^6-cyclopentyl-9-methyladenine, reference compound] |
| 219 | 1.35 µM |  | 501 nM |  | 6.17 nM | CN(C)c1nc2c(NC3CCCC3)ncnc2n1C [Example 8, N^6-cyclopentyl-8-dimethylamino-9-methyladenine] |
| 166 | 1.05 µM | > 20000 | 5 nM | 6.31 nM |  | CC(C)N(C)c1nc2c(N[C@H]3C[C@H]4CC[C@@H]3C4)ncnc2n1C (relative stereo) [Example 13, (±)-N^6-(endo-2'-norbornyl)-8-isopropylmethylamino-9-methyladenine] |
